The test system of one assay is MC38-OVA tumor cells. Briefly: Murine MC38-OVA tumor model, intratumoral MgCl2 vs NaCl in bilateral tumors. In kind it is in vivo, mice. Conditions: for Tumor growth: 3 mM MgCl2 intratumoral vs 3 mM NaCl in contralateral tumor, every third day. On the procedure: FIG. 1: Intratumoral magnesium administration improves adaptive anti-tumor immunity. (a) Schematic of experimental design. B1/6 mice, either immunized with OVA or left untreated, were inoculated subcutaneously with MC38-OVA tumor cells bilaterally on the flanks. From day 7, injection of 3 mM NaCl solution was applied in left flank tumor, whereas 3 mM MgCl2 solution was injected in contralateral tumor. This regimen was repeated every third day for a total of 8 cycles. (b) Tumor growth curves in non-immunized mice (n=20) (left panel), and immunized mice (n=19) (right panel). (c) Tumor growth curves in ±CD8 depleted mice (n=6-17). Results were pooled from 2 independent experiments, with n=6-12 mice each. (d) Absolute numbers of tumor-infiltrating CD8^+ T cells. (e) Number of tumor-infiltrating CD8^+ T cells positive for Ki67 (left panel), Granzyme B (middle panel) and CD25 (right panel). (f) Cell number of tumor-infiltrating CD8^+ T cells expressing PD-1 and Tim3. (g) Schematic of experimental design. B1/6 mice, immunized with OVA, were inoculated subcutaneously with MC38-OVA tumor cells unilaterally on the flank. From day 5, intratumoral injections of either 3 mM NaCl or 3 mM MgCl2 were initiated, and repeated every third day for 8 cycles. Mice were additionally injected with 200 μg i.p. of isotype control (IgG2a) or anti-PD-1 Ab on day 9, 12, and 15. (h) Tumor growth curves (n=13-14) and (i) host survival (n=13-14). Results were pooled from 2 independent experiments (b, h, i). Unless stated otherwise, 6 to 12 weeks old female mice were used for experiments. In assays with pre-immunized mice, mice were immunized 19 days before tumor implantation by subcutaneous injection of 100 μg of OVA protein (Invivogen) and 50 μg of CpG-B ODN 1826 (Eurogentec), resuspended in 100 μL of PBS. For tumor implantation, mice were inoculated subcutaneously onto the flanks with 0.5×10^6 MC38-OVA cells, resuspended in 100 μL of PBS. In bilateral tumor experiments, mice received 50 μL intra-tumoral injections of either 3 mM NaCl or 3 mM MgCl2 (both diluted in ddH2O). Injections of NaCl solution was applied in left flank tumor, whereas MgCl2 solution was injected in contralateral tumor. I.t. injections were initiated once tumors were palpable, usually between day 5 and 10 after tumor injection. Injections were repeated every third day. Tumor size was quantified using a caliper and tumor volume was calculated using a rational ellipse formula (α2×β×π6, α being the shorter axis and β the longer axis). […] Tumor tissue was isolated from mice, weighed and minced using razor blades. Tissue was then digested using accutase (PAA), collagenase IV (Worthington), hyaluronidase (Sigma), and DNAse type IV (Sigma) for 60 min at 37° C. with constant shaking. The cell suspensions were filtered using a cell strainer (70 μm). Precision Counting beads (Biolegend) were added before staining to quantify the number of cells per gram of tumor. Single cell suspensions were blocked with rat anti-mouse FcγIII/II receptor (CD16/CD32) blocking antibodies (‘Fc-block’) and stained with live/dead cell-exclusion dye. Cells were then incubated with fluorophore-conjugated antibodies directed against cell surface antigens, washed and resuspended in FACS buffer (PBS+2% FBS). For intracellular/intranuclear antigens, cells stained with cell surface antibodies were fixed and permeabilized using Foxp3/transcription factor staining buffer (eBioscience) prior to incubation with antibodies directed against intracellular antigens. CD8 T cells are essential for antitumor immunity. To explore the role of Mg^2+ in the tumor microenvironment, and specifically its functional impact on T cell immunity, we examined the effect of intratumoral (i.t.) Mg^2+ administration in the MC38-OVA tumor model. Specifically, mice were either immunized against ovalbumin (OVA) or left untreated before subcutaneous implantation of OVA-expressing MC38 colorectal carcinoma cells bilaterally on the flanks. […]

Another assay addresses T1, LFA-1 (Homo sapiens, UniProt P05107+P20701).
T1 construct: endogenous in cells; host or cells: primary human T cells from healthy donors: PHA-induced T cell blasts, sorted EM and naive CD8 T cells, and NY-ESO-1 TCR-transduced REP T cells
The assay can be described thus: Flow cytometry of LFA-1 open head-piece (mAb m24) on EM and naïve CD8 T cells. The class given is cell-based. On the procedure:
FIG. 2: Extracellular magnesium promotes memory-specific activation via LFA-1. Glycolytic switch of human EM CD8 T cells (a) and naïve CD8 T cells (b) subsets upon injection of anti-CD3 Ab only, or anti-CD3 and anti-CD28 Ab, was assessed by metabolic flux analysis in medium containing either 1.2 mM Mg^2+, 0 mM Mg^2+, or medium which was reconstituted from 0 mM to 1.2 mM Mg^2+ immediately prior to activation (0→1.2 mM Mg^2+). (a) Results for human effector memory (EM) and (b) for human naïve CD8 T cells. Glycolytic switch was quantified by subtracting […] measurements. (c) Flow cytometric analysis of surface activation markers on human EM CD8 T cells 24 hours after activation by plate-bound anti-CD3 Ab and soluble anti-CD28 Ab, in 1.2 mM and 0 mM Mg^2+ media, respectively. (d) Abundance of inflammatory cytokines in corresponding EM CD8 T cell culture supernatants, determined by CBA. (e) CD11a (LFA-1) surface expression on human naïve and EM CD8 T cells as well PHA T cell blasts. Flow cytometry-based assessment of total LFA-1 expression assessed by mAb TS2/4 (f), closed conformation of αL by mAb HI111 (g), extended conformation of LFA-1 by mAb Kim127 (h), open head-piece conformation of LFA-1 by mAb m24 (i), phosphorylation of focal adhesion kinase (FAK) […] as well TNF expression (k)±TCR-induced activation in different extracellular Mg^2+ concentrations. […]
On the technique in general: Flow cytometry measures light scatter and fluorescence of single cells or particles in a stream.

T1 sequence (P20701 26-1170): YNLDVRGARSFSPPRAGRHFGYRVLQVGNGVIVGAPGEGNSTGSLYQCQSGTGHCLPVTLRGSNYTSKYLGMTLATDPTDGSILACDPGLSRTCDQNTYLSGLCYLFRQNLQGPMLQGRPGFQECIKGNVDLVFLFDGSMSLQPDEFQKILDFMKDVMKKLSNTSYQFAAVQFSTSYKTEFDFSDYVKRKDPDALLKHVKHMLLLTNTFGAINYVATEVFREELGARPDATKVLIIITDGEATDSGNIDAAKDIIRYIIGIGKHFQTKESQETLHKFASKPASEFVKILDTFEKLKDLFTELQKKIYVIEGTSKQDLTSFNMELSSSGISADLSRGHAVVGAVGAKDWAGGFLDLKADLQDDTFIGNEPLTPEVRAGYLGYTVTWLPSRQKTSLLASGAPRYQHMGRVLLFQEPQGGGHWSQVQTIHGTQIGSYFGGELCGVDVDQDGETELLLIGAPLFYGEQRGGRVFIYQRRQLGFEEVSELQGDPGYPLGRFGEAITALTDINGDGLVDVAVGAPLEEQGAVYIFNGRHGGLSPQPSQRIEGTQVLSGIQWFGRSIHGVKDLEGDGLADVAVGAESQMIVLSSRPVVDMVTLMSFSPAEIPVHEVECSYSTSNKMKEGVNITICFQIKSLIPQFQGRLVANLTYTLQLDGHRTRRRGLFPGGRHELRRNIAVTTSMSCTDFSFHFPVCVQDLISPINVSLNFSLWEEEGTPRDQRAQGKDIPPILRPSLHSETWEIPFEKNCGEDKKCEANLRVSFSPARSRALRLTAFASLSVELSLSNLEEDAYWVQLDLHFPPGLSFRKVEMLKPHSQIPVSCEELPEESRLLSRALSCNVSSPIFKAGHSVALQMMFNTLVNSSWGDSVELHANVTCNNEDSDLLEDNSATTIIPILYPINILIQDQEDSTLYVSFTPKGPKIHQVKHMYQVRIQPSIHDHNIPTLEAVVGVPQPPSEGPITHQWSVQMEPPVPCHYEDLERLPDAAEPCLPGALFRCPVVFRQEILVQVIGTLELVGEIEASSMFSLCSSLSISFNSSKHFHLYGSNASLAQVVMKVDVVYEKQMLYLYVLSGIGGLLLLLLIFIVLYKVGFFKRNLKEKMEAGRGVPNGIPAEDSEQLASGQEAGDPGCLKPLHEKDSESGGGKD
T1 sequence (P05107 23-769): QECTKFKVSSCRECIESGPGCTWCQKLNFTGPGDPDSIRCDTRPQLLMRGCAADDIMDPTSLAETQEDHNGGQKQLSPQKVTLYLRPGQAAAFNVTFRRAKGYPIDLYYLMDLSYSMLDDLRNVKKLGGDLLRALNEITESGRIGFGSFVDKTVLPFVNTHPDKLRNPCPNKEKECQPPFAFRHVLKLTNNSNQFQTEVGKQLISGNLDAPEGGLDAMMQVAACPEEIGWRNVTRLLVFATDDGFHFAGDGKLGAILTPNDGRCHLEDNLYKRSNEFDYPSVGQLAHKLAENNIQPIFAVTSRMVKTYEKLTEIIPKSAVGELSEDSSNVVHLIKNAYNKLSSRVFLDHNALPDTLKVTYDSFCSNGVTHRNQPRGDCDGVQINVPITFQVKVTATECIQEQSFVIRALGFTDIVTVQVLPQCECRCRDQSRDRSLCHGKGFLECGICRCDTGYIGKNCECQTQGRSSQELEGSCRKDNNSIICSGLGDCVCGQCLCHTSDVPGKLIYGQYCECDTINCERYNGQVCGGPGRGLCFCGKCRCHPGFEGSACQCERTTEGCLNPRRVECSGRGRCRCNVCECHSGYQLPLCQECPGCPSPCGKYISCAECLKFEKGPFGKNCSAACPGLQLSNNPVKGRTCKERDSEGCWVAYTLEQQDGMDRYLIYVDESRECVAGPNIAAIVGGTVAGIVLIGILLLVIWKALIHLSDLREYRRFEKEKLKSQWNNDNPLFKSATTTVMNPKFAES

Consider `[Mg+2]` [Mg^2+, Magnesium], for which, in the assay on MC38-OVA tumor cells (Mg^2+ treated vs NaCl tumors), the “Tumor-infiltrating CD8^+ T cells expressing PD-1 and Tim3” value is recorded as “significantly more often (co-)expressed”; the “Tumor-infiltrating CD8^+ T cells positive for CD25” value is “more”; the “Tumor-infiltrating CD8^+ T cells positive for Granzyme B” value is “more”; the “Tumor-infiltrating CD8^+ T cells positive for Ki67” value was “more”. Also, in the assay on MC38-OVA tumor cells (Mg^2+ treated vs NaCl tumors, flow cytometry), the “Number of tumor-infiltrating CD8^+ T cells” value is reported as “increased”. In the assay on MC38-OVA tumor cells (OVA pre-immunized mice), the Tumor growth result is reported as “significantly reduced tumor growth”. For the same compound, in the assay on MC38-OVA tumor cells (non-immunized mice), the Tumor growth result is reported as “comparable”. In addition, the “Activation induced LFA-1 head-piece opening (m24) on EM CD8 T cells” value on LFA-1 (Mg^2+-restricted conditions vs Mg^2+) is listed as “reduced activation induced LFA-1 head-piece opening”. Besides, the “Activation induced LFA-1 head-piece opening (m24) on naïve CD8 T cells” value on LFA-1 (moderate TCR stimulation, ±Mg^2+) is “did not induce LFA-1 head-piece opening”.

The record behind these values is patent US20240010726A1, “LFA-1 SIGNALLING MEDIATOR FOR USE IN CANCER THERAPY” (Universität Basel, priority 2020, published 2024).
